The nature of this series: Phase 1 clinical study / Study 101: plasma epinephrine pharmacokinetics. The class given is in vivo. To be noted: human, 0.3 mg IM, read-out: mean baseline-corrected Cmax.

A word on the Cmax: it is the maximum level reached in the sampled fluid or tissue.

SMILES strings stand for the structures.

Procedure: Twelve human subjects participated in the open-label, single sequence crossover study. […] The subjects returned for a safety follow up visit 3 to 5 days after the final treatment.
The dry powder formulation was administered via intranasal instillation once using a nasal device (APTAR). The IM solution and materials were supplied by the study site and prepared according to the local procedures. The study drug was administered at approximately the same time on each treatment day. There was a washout period of 20 days between the nasal doses administered as treatment A and treatment D. The subjects were admitted to the clinical site the day before each treatment administration and remained on site until at least 8 hours post-dose, or when applicable, until 24 hours post-dose of the specific treatment period. The study drug was administered after at least a 10 hour fast. A standardized meal was provided approximately 4 hours after dosing. […]
Noncompartmental analysis was performed on individual human subject plasma concentration-time data using nominal doses and actual blood sampling times. […] Baseline correction was accomplished using the average of the measured concentrations at nominal times of −60, −30, and 0 minutes before dosing. […]

Consider `CNC[C@H](O)c1ccc(O)c(O)c1` [Epinephrine IM, epinephrine], for which the Cmax is 184 µg/mL.

For the origin of these results see patent publication US20260108687A1 (Belhaven BioPharma Inc., priority 2024, published 2026).
